Data: ChEMBL document CHEMBL1126994, “Synthesis of myristic acid analogs with anti-HIV activity that may be resistant to metabolic processing by -oxidation” (1993)
The source made the active and inactive calls. No cut-off for these calls is given here.

Tests used:
[1] = biological target: Glycylpeptide N-tetradecanoyltransferase (Saccharomyces cerevisiae) (UniProt P14743); assay: Tested in vitro for the production of Acylpeptide by yeast N-myristoyltransferase (NMT) assay
[2] = test system: CCRF-CEM; assay: Tested for cytotoxicity against HIV-1 uninfected CEM cells; assay type: functional; settings: Homo sapiens, read-out: TD50 (the source's name)
[3] = test system: Pseudomonas; assay: Tested in vitro for the production of acyl-CoA by Acyl-CoA synthetase in Pseudomonas
[4] = biological target: T1, Glycylpeptide N-tetradecanoyltransferase 1 (Homo sapiens) (UniProt P30419); assay: In vitro production of Acylpeptide by human N-myristoyltransferase (NMT) assay
T1 sequence (whole entry): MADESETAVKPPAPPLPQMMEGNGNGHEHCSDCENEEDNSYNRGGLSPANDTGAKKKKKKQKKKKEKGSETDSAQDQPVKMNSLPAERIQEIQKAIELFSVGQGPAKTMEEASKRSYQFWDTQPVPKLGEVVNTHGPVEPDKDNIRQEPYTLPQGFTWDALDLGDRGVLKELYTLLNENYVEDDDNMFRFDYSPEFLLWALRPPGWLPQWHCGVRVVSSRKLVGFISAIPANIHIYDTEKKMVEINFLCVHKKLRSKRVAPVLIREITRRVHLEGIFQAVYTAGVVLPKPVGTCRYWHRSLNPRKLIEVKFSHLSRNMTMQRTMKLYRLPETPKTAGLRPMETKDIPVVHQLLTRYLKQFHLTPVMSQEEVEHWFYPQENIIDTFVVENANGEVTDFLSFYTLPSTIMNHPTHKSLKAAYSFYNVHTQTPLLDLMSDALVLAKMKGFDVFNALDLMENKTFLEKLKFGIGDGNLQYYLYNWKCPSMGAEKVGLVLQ

[5] = species: Homo sapiens; assay: Tested in vitro for the production of acyl-CoA of compound by Acyl-CoA synthetase in human
[6] = test system: CCRF-CEM; assay: Tested for the antiviral activity against HIV-1 infected CEM cells; Value ranges from 1-5; assay type: functional; settings: Homo sapiens, read-out: ID50 (the source's name)
[7] = test system: CCRF-CEM; assay: Tested for cytotoxicity against HIV-1 uninfected CEM cells; Value ranges from 80-190; assay type: functional; settings: Homo sapiens, read-out: TD50 (the source's name)
[8] = test system: CCRF-CEM; assay: Tested for the antiviral activity against HIV-1 infected CEM cells; Value ranges from 9-20; assay type: functional; settings: Homo sapiens, read-out: ID50 (the source's name)
[9] = test system: CCRF-CEM; assay: Tested for the antiviral activity against HIV-1 infected CEM cells; assay type: functional; settings: Homo sapiens, read-out: ID50 (the source's name)
[10] = test system: CCRF-CEM; assay: Tested for the antiviral activity against HIV-1 infected CEM cells; NA means not active; assay type: functional, cell-based; settings: Homo sapiens

Chain of Glycylpeptide N-tetradecanoyltransferase (Saccharomyces cerevisiae) (P14743 whole entry, looked up): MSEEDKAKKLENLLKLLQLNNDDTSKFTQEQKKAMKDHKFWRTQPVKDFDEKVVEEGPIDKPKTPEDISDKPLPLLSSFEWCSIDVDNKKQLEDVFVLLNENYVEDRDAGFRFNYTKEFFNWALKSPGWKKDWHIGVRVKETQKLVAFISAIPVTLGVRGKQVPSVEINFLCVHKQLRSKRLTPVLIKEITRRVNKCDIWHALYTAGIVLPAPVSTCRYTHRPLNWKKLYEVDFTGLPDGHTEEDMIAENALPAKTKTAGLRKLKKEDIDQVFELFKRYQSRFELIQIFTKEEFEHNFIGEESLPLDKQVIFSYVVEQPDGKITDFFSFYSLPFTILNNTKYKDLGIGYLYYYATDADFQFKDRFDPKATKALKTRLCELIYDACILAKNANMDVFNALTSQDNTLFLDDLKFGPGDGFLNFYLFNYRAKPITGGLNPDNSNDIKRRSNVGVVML

Work on COCCCCCCCCCC(F)CC(=O)O (centres undefined) yielded a Myristoylpeptide [1] of under 5%, a CC50 [2] of 300 µM and a MyristoylCoA [3] of 94%. It also gave a Myristoylpeptide [4] of 5%, a MyristoylCoA [5] of under 5% and an IC50 [6] of 1 µM.

Compound COCCCCCCCCCCCCC(=O)O has a CC50 [7] of 80 µM, a Myristoylpeptide [1] of 109% and a MyristoylCoA [3] of 175%. For the same compound, the Myristoylpeptide [4] was 84%, the MyristoylCoA [5] was 75% and the IC50 [6] was 1 µM.

COCCCCCCCCCC(O)CC(=O)O (centres undefined) gave an IC50 [8] of 9 µM, a Myristoylpeptide [1] of under 5% and a CC50 [2] of 280 µM. It also gave a MyristoylCoA [3] of 114%, a Myristoylpeptide [4] of under 5% and a MyristoylCoA [5] of under 5%.

COCCCCCCCCC(O)CCC(=O)O (centres undefined) gave a Myristoylpeptide [1] of 107%, an IC50 [9] of 77 µM and a CC50 [2] of over 400 µM. The Myristoylpeptide [4] was under 5%.

With COCCCCCCCCCCC(F)C(=O)O (centres undefined) the Myristoylpeptide [1] was 14%, the ID50 [10] was “inactive” and the CC50 [2] was over 100 µM. It also gave a MyristoylCoA [3] of 14%, a Myristoylpeptide [4] of under 5% and a MyristoylCoA [5] of 26%.

COCCCCCCCCC/C=C/C(=O)O showed a Myristoylpeptide [1] of 7%, an IC50 [9] of 5 µM and a CC50 [2] of over 80 µM. For the same compound, the MyristoylCoA [3] was 78%, the Myristoylpeptide [4] was 5% and the MyristoylCoA [5] was 12%.
